Patent US20090220996A1, “In vitro Assay Methods for Classifying Embryotoxicity of Compounds” (RELIANCE LIFE SCIENCES PVT LTD., priority 2007, published 2009)

What was measured:
[1] = test system: lineage marker gene expression in hEBs; assay: Gene expression profile of day 15 hEBs (RT-PCR, densitometry) and ID50; format: cell-based, human; details: for lineage markers down-regulated / affected: summary statement, hEBs
Method: On the 15th day, differentiated cells that are adherent are washed with 2 ml DPBS and trypsinized (0.05%) from 24 well plates and collected in a tube. The tube is centrifuged at 2000 rpm for 10 minutes to pellet the cells. The total RNA is isolated using TRIzol (Invitrogen Corporation) following the manufacturer's instructions. The RNA is quantified by absorbance at 260 nm, and 1-2 μg of RNA from control and drug treated cells are converted to cDNA using Superscript cDNA synthesis kit (Invitrogen Corporation) following the manufacturer's instructions. cDNA was used to study the expression of genes specific for ectoderm, mesoderm, and endoderm, by an appropriate method, such as RT-PCR, qPCR, or microarray. Markers indicative of each lineage are used.
The changes in gene expression in the presence or absence of the drug are compared. Changes in a mesodermal marker representative of cardiogenesis is used to calculate ID50 values of the tested compounds, and densitometry of the band intensities from RT-PCR, or CT values from qPCR, are used to calculate the ID50 values.
Various compounds were tested for their effect on the gene expression profiles of homeobox transcription factor Nanog (“NANOG”; GenBank Accession Number AB093576), neurofilament, heavy polypeptide 200 KDa (“NEFH” or “NFH”; GenBank Accession Number X15307), keratin-15 (“KRT15”; GenBank Accession Number X07696), actin, alpha, cardiac muscle (“ACTC1”; GenBank Accession Number NM_005159), msh homeobox 1 (“MSX1”; GenBank Accession Number BC067353), CD34 molecule (“CD34”; GenBank Accession Number BC039146), alpha fetoprotein (“AFP”; GenBank Accession Number J00077), serum albumin (“ALB”; GenBank Accession Number M12523), bone morphogenetic protein 4 (“BMP4”; GenBank Accession Number NM_130850), and bone morphogenetic protein 5 (“BMP5”; GenBank Accession Number M60314) in hEBs. Glyceraldehyde-3-phosphate dehydrogenase (“GAPDH”; GenBank Accession Number J04038) was used as a control.
RNA was extracted from different drug treated groups using the trizol method. One microgram of RNA was converted to cDNA using superscript reverse transcriptase. PCR was performed with the initial denaturation cycle at 94° C. for 5 min, followed by 35 cycles of 94° C. for 30 seconds, annealing temperature varying (Table 1) for 30 seconds, 72° C. for 1 minute, followed final extension at 72° C. for 5 min. Electrophoresis was performed on 1.5% agarose gels. Paired comparisons were conducted using a paired t test, and all data are presented as mean values±S.E. Differences were considered significant at a 0.05 level of confidence.
For calculating IC50-hES and ID50-hES cells, one petri dish was used per concentration of the test chemical, as well as for the untreated control (assay medium) and the solvent control. The lid was turned carefully to its regular position and put on top of a petri dish filled with 5 ml PBS. […] The changes in gene expression in the presence or absence of the drug were compared. Changes in mesodermal marker representative of cardiogenesis was used to calculate ID50 values of the tested compounds, and the densitometry of the band intensities performed in case of RT-PCR, or CT values in case of qPCR, were used to calculate the ID50 values.

[2] = test system: 3T3 (mouse fibroblast cell line); details: Table 4; from the EST (Genschow, et al., 2000); cited from earlier work
[3] = test system: mouse ES cells; details: Table 4; from the EST (Genschow, et al., 2000); cited from earlier work
[4] = Table 5; cited from earlier work
[5] = test system: hES, hEBs and HFF; assay: CyQUANT/survival cytotoxicity, cell type not given; format: cell-based, human; details: cell type not stated; for cell survival: CyQUANT
Method: Cytotoxicity analysis of three cell types (hES, hEBs and HFF) was evaluated using the CyQUANT assay following compound treatment. All data were the mean of three independent experiments for each cell type. Data is represented as the mean±SE.

[6] = 0.1 μg/ml, day 15 hEBs, FIG. 5B

O=c1[nH]cc(F)c(=O)[nH]1 [5-Fluorouracil, 5-fluorouracil]
down-regulation of ALB gene expression ([1]; 0.001 μg/ml, day 15 hEBs, FIG. 5B): 40% | decrease in NFH levels ([1]; 0.01 μg/ml, day 15 hEBs, FIG. 5B): 60% | down-regulation of AFP gene expression [1, 6]: 80% | down-regulation of MSX1 expression [1, 6]: 15% | down-regulation of NANOG expression [1, 6]: 25% | gene expression levels of ACTC1, KRT, CD34, BMP4, and BMP5 ([1]; 0.0001-0.1 μg/ml, day 15 hEBs, FIG. 5B): no change | lineage markers down-regulated / affected [1]: all the three lineage markers are effected

CS(=O)(=O)OCCCCOS(C)(=O)=O [Busulfan, busulfan]
Mouse EST IC50 - 3T3 [2]: 4.8 µg/mL | Mouse EST IC50 - mES [3]: 2.1 µg/mL | Effects on fetus [4]: Reproductive | General toxicity [4]: Hematopoietic

Cn1c(=O)c2c(ncn2C)n(C)c1=O [Caffeine, caffeine]
decrease of AFP expression ([1]; 50 μg/ml, day 15 hEBs, FIG. 6B): 80% | decrease of NFH expression ([1]; 50 μg/ml, day 15 hEBs, FIG. 6B): 80% | decrease of keratin expression ([1]; 50 μg/ml, day 15 hEBs, FIG. 6B): 85% | decrease of ACTC1 expression ([1]; 500 μg/ml, day 15 hEBs, FIG. 6B): 40% | expression levels of NANOG, CD34, BMP4, MSX1, and BMP5 ([1]; day 15 hEBs, FIG. 6B): no significant change | cell survival percentage compared to controls ([5]; 50 μg/ml, FIG. 3B): significant decrease | cell survival ([5]; 500 μg/ml, FIG. 4C): 20% | General toxicity [4]: Cardiac, CNS

NC(=O)NO [Hydroxyurea, hydroxyurea]
Mouse EST IC50 - 3T3 [2]: 7.2 µg/mL | Mouse EST IC50 - mES [3]: 2.0 µg/mL

COc1ccc2c(c1)c(CC(=O)O)c(C)n2C(=O)c1ccc(Cl)cc1 [Indomethacin, indomethacin]
cell survival ([5]; 100 μg/ml, FIG. 4D): 20-30% | Mouse EST IC50 - 3T3 [2]: 27 µg/mL | Mouse EST IC50 - mES [3]: 29 µg/mL | General toxicity [4]: Cardiac, Renal

CC1(C)S[C@@H]2[C@H](NC(=O)Cc3ccccc3)C(=O)N2[C@H]1C(=O)O [Penicillin G, penicillin G]
ALB levels ([1]; 10 μg/ml, day 15 hEBs, FIG. 7): decreased | AFP levels decreased to ([1]; 100 μg/ml, day 15 hEBs, FIG. 7): 40% | markers of ectoderm, mesoderm, and endoderm other than AFP and ALB ([1]; day 15 hEBs, FIG. 7A): no significant change | expression of AFP and ALB ([1]; highest dose (5000 μg/ml), day 15 hEBs, FIG. 7B): complete loss of expression | lineage markers down-regulated / affected [1]: only endodermal markers are down-regulated | Mouse EST IC50 - 3T3 [2]: 1586 µg/mL | Mouse EST IC50 - mES [3]: 2950 µg/mL | Effects on fetus [4]: None in Humans | General toxicity [4]: Hypersensitivity
